For series [1], the system named is CHO. The series can be described thus: Selectivity ratio of IC50 for human OX1R Ile408Val mutant expressed in CHO cells to IC50 for human OX2R expressed in CHO cells. The class given is cell-based.
For series [2], the target named is T1, Orexin receptor type 2 (Homo sapiens, UniProt O43614).
T1 sequence (O43614 whole entry): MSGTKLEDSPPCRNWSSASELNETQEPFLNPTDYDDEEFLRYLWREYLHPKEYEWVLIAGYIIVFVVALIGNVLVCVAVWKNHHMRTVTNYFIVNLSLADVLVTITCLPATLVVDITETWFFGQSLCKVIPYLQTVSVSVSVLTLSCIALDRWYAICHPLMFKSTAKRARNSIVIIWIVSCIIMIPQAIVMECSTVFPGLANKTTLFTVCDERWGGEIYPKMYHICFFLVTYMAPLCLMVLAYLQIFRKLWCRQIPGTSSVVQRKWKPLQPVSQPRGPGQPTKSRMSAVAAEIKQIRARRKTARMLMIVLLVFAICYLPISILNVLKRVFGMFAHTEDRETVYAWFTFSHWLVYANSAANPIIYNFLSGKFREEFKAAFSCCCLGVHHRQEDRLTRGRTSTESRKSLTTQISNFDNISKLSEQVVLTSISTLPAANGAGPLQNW
The series can be described thus: Antagonist activity at human OX2R expressed in CHO cells assessed as inhibition of Ala-6,12-orexinA-induced effect after 5 mins by FLIPR assay. The class given is cell-based.

The target in series [3] is T1, Orexin receptor type 2. The series can be described thus: Displacement of (S)-N-(2-(1H-pyrrol-1-yl)phenyl)-1-(2-([3H]-1-methyl-1H-benzo[d]imidazol-2-ylthio)acetyl)pyrrolidine-2-carboxamide from human OX2R expressed in CHO cells after 3 hrs by topcount analysis. The class given is cell-based.
For series [4], the target named is T2, Orexin/Hypocretin receptor type 1 (Homo sapiens, UniProt O43613, I408V). The series can be described thus: Antagonist activity at human OX1R I408V mutant expressed in CHO cells assessed as inhibition of Ala-6,12-orexinA-induced effect after 5 mins by FLIPR assay. The class given is cell-based.
T2 sequence (O43613 whole entry I408V): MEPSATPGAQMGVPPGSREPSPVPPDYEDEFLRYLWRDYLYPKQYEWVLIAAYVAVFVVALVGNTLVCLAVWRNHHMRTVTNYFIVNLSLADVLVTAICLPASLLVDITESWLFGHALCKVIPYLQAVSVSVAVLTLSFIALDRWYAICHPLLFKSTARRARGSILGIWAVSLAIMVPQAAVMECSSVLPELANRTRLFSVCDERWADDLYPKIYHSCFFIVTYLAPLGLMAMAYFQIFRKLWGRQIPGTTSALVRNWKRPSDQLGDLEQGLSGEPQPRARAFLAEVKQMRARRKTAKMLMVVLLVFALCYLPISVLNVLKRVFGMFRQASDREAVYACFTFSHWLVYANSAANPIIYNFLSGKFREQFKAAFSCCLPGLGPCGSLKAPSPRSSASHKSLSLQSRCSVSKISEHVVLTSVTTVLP
Series [5] concerns the target T2, Orexin/Hypocretin receptor type 1. The series can be described thus: Displacement of N-cyclobutyl-5-methyl-N-(2-([3H]-1-methyl-1H-benzo[d]imidazol-2-ylthio)ethyl)-2-(2H-1,2,3-triazol-2-yl)benzamide from human OX1R I408V mutant expressed in CHO cells by topcount analysis. It counts as cell-based.
Series [6] has as its system CHO. The experiment in a line: Selectivity ratio of Ki for human OX1R I408V mutant expressed in CHO cells to Ki for human OX2R expressed in CHO cells. The class given is cell-based.
Series [7] can be described thus: Drug degradation in buffer assessed as compound remaining at pH 2 after 24 hrs. It counts as physicochemical. As to conditions: for remaining at 24 h: pH 2, read-out: Stability.
Series [8] can be described thus: Solubility of the compound in buffer at pH 7. The class given is physicochemical.
A short description of series [9]: Solubility of the compound in buffer at pH 2. It counts as physicochemical.
The target in the next series is Cytochrome P450 3A4 (Homo sapiens, UniProt P08684). The experiment in a line: (§1) Time dependent inhibition of CYP3A4 (unknown origin). It counts as ADME.
Chain of Cytochrome P450 3A4 (P08684 whole entry): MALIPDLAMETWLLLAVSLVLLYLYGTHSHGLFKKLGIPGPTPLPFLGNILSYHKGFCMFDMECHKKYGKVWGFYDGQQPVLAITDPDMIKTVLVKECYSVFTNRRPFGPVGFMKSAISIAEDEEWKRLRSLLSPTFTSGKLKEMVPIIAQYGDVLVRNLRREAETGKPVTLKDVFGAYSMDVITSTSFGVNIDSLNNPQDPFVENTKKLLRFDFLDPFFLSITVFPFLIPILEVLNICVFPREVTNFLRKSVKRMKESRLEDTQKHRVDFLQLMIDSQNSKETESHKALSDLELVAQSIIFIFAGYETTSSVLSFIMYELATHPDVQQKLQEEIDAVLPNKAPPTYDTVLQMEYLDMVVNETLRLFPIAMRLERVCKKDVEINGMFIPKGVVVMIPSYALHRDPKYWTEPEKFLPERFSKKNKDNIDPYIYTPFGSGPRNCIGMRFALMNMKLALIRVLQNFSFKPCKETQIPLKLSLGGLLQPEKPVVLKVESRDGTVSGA
For series [10], the target named is T3, CYP3A4 (Homo sapiens, UniProt P08684). Described as §1. The class given is ADME. As to conditions: human.
T3 sequence (P08684 whole entry): as above
Series [11] deals with T3, CYP3A4. The experiment in a line: Ratio of Kinact to Ki for CYP3A4 (unknown origin). It counts as ADME.
Series [12] in a line: Clearance in dog with cassette dosing. The class given is ADME, organism-based, Canis lupus familiaris. The settings on record: in vivo.

pIC50, pKi: −log10 of the molar value. In brackets after ≈: the same amount, converted by molar mass.

Regarding `COc1ccc(CNC(=O)c2cc(-c3cncc(C)c3)ncc2-c2ccnnc2)nc1OC`, the Ratio IC50 with CHO [1] is above 10. For the same molecule, the values for the negative logarithm of the IC50 (pIC50) (at Orexin receptor type 2 [2]; in [4]) were 5.84 and 4.82, respectively. Moreover, the pKi at Orexin receptor type 2 [3] was 6.71; in series [5], 4.41. Besides, the Ratio Ki in the series with CHO [6] was 202.
Take `COc1ccc(CNC(=O)c2cc(-c3cncc(C)c3)ncc2-c2ccccn2)nc1OC`: the Ratio IC50 in the series on CHO [1] was 129. For the same molecule, the pIC50 is 7.44 at Orexin receptor type 2 [2] and 5.33 in series [4]. In addition, the pKi is 8.85 at Orexin receptor type 2 [3] and 5.10 in series [5]. In addition, the Ratio Ki in the series on CHO [6] was found to be 5640.
Turning to `COc1ccc(CNC(=O)c2cc(-c3cncc(Cl)c3)cnc2-c2ccccc2)nc1OC`, the remaining at 24 h in series [7] worked out at 100%. Moreover, the results for the solubility in series [8] and in [9] were 10 µM (≈ 4.61 µg/mL) and 16 µM (≈ 7.37 µg/mL), respectively.
In turn, `COc1ccc(CNC(=O)c2cc(-c3cncc(Cl)c3)cnc2-c2ccccn2)nc1OC` [MK-1064] showed a pKi on Cytochrome P450 3A4 of 5.02. For the same molecule, the kinact on CYP3A4 [10] was 0.00183 s⁻¹. In addition, on CYP3A4 [11], the kinact/KI is 200 M⁻¹ s⁻¹.
`COc1ccc(CNC(=O)c2cc(-c3cncc(C)c3)nc3onc(-c4ccccc4)c23)nc1OC`: in the series with CHO [1], the Ratio IC50 was above 24. The pIC50 was 6.38 on Orexin receptor type 2 [2] and below 5.00 in series [4]. Further, the values for the pKi (on Orexin receptor type 2 [3]; in series [5]) were 8.05 and 5.39, respectively. Moreover, the Ratio Ki in the series on CHO [6] stood at 456.
Consider `COc1ccc(CNC(=O)c2cc(-c3cncc(C)c3)ncc2N2CCOCC2)nc1OC`, for which the Ratio IC50 in the series with CHO [1] is above 3. Besides, the pIC50 at Orexin receptor type 2 [2] is 5.46; in [4], 5.00. In addition, the pKi at Orexin receptor type 2 [3] is 7.12; in series [5], 5.82. Also, in the series with CHO [6], the Ratio Ki amounted to 20. Further, the clearance in [12] came to 15 mL/min/kg.
Turning to `COc1ccc(CNC(=O)c2cc(-c3cncc(C)c3)ncc2-c2cnn(C)c2)nc1OC`, in the series with CHO [1], the Ratio IC50 is above 60. For the same molecule, the pIC50 is 6.78 on Orexin receptor type 2 [2] and 5.00 in series [4]. The negative-log Ki (pKi) was 8.39 on Orexin receptor type 2 [3] and 6.03 in series [5]. The Ratio Ki with CHO [6] came to 227.
For the molecule `COc1ccc(CNC(=O)c2cc(-c3cncc(C)c3)ncc2-c2cncc(F)c2)nc1OC`, in the series on CHO [1], the Ratio IC50 is 192. Also, the pIC50 on Orexin receptor type 2 [2] is 7.24; in [4], 5.00. Also, the pKi was 8.28 on Orexin receptor type 2 [3] and 4.77 in [5]. In addition, the Ratio Ki in the series with CHO [6] is 3270. The molecule further displayed a clearance in series [12] of 19 mL/min/kg.
`COc1ccc(CNC(=O)c2cc(-c3cncc(C)c3)ncc2N2CCC2)nc1OC`: the Ratio IC50 in the series on CHO [1] was above 120. Also, the pIC50 on Orexin receptor type 2 [2] is 7.08; in series [4] it was 5.00. Further, the figures for the pKi (on Orexin receptor type 2 [3]; in [5]) were 8.00 and 4.74, respectively. Moreover, the Ratio Ki with CHO [6] stood at 1800. The clearance in series [12] was 19 mL/min/kg.
As to `COc1ccc(CNC(=O)c2sc(-c3cncc(C)c3)nc2-c2cccc(F)c2)nc1OC`, in the series on CHO [1], the Ratio IC50 was above 9. For the same molecule, the pIC50 on Orexin receptor type 2 [2] was 5.97; in series [4], below 5.00. The pKi on Orexin receptor type 2 [3] is 6.85; in series [5], 4.92. In the series with CHO [6], the Ratio Ki was 86.
In the case of `COc1ccc(CNC(=O)c2cc(-c3cncc(C)c3)ncc2-c2cnccn2)nc1OC`, the Ratio IC50 with CHO [1] was above 92. Further, the pIC50 is 6.96 at Orexin receptor type 2 [2] and 5.00 in [4]. For the same molecule, the values for the pKi (on Orexin receptor type 2 [3]; in series [5]) were 8.12 and 4.51, respectively. In addition, the Ratio Ki with CHO [6] turned out to be 4080. This molecule showed a clearance in [12] of 24 mL/min/kg.
Turning to `COc1ccc(CNC(=O)c2nc(-c3cncc(C)c3)cnc2-c2ccccc2)nc1OC`, the Ratio IC50 in the series with CHO [1] is above 645. Besides, the pIC50 on Orexin receptor type 2 [2] was 7.51; in [4], below 4.70. The molecule also gave a pKi in series [5] of 5.07. Besides, the Ratio Ki in the series with CHO [6] is 6070. The molecule also yielded a clearance in series [12] of 37 mL/min/kg.
In the case of `COc1ccc(CNC(=O)c2cc(-c3cncc(C)c3)nnc2-c2ccccc2)nc1OC`, in the series on CHO [1], the Ratio IC50 is above 59. The results for the pIC50 (at Orexin receptor type 2 [2]; in series [4]) were 6.77 and below 5.00, respectively. The negative-log Ki (pKi) at Orexin receptor type 2 [3] was 7.96; in series [5], 4.82. Moreover, the Ratio Ki in the series on CHO [6] was found to be 1360.
Turning to `COc1ccc(CNC(=O)c2cc(-c3cncc(C)c3)ccc2-c2ccccc2)nc1OC`, in the series on CHO [1], the Ratio IC50 amounted to 110. Also, the pIC50 at Orexin receptor type 2 [2] is 7.85; in series [4], 5.81. Moreover, the pKi on Orexin receptor type 2 [3] is 9.52; in series [5], 6.00. For the same molecule, in the series with CHO [6], the Ratio Ki turned out to be 3330. Besides, in series [12], the clearance was found to be 51 mL/min/kg.
For `COc1ccc(CNC(=O)c2cc(-c3cncc(C)c3)ncc2N2CCCC2)nc1OC`, in the series on CHO [1], the Ratio IC50 was above 270. The pIC50 on Orexin receptor type 2 [2] was 7.43; in [4], 5.00. Moreover, the pKi is 8.35 at Orexin receptor type 2 [3] and 4.85 in [5]. Moreover, the Ratio Ki in the series with CHO [6] turned out to be 3110.
`COc1ccc(CNC(=O)c2cc(-c3cncc(C)c3)ncc2-c2ccccc2)nc1OC`: the Ratio IC50 in the series with CHO [1] was 133. Besides, the pKi was 5.25 at Cytochrome P450 3A4, 9.30 at Orexin receptor type 2 [3] and 5.57 in [5]. For the same molecule, the kinact on CYP3A4 [10] was 0.000217 s⁻¹. The Stability entry in series [7] (pH 2, 24 h) is listed as “Stable”. In addition, the figures for the pIC50 (on Orexin receptor type 2 [2]; in [4]) were 7.68 and 5.55, respectively. Also, the kinact/KI on CYP3A4 [11] is 217 M⁻¹ s⁻¹. The Ratio Ki with CHO [6] amounted to 5400. The clearance in series [12] is 15 mL/min/kg.
Consider `COc1ccc(CNC(=O)c2cc(-c3cncc(C)c3)cnc2-c2ccccc2)nc1OC`, for which the Ratio IC50 in the series on CHO [1] was 154. Also, in [7], the remaining at 24 h is 100%. Besides, the pIC50 at Orexin receptor type 2 [2] is 7.89; in series [4] it was 5.70. Also, the solubility came out at 61 µM (≈ 26.9 µg/mL) in series [8] and 180 µM (≈ 79.3 µg/mL) in series [9]. In addition, the values for the pKi (at Orexin receptor type 2 [3]; in series [5]) were 9.52 and 6.14, respectively. Further, the Ratio Ki in the series with CHO [6] amounted to 2400. This molecule also gave a clearance in [12] of 27 mL/min/kg.
For the molecule `COc1ccc(CNC(=O)c2nc(-c3cncc(C)c3)ncc2-c2ccccc2)nc1OC`, the Ratio IC50 in the series with CHO [1] is above 83. The pIC50 at Orexin receptor type 2 [2] is 6.92; in series [4], below 5.00. Further, the pKi on Orexin receptor type 2 [3] is 7.96; in series [5] it was 4.64. The molecule further gave a clearance in [12] of 47 mL/min/kg.
As to `COc1ccc(CNC(=O)c2cc(-c3cncc(C)c3)ncc2-c2ccccc2F)nc1OC`, the Ratio IC50 in the series on CHO [1] amounted to 120. For the same molecule, the results for the pIC50 (on Orexin receptor type 2 [2]; in [4]) were 7.60 and 5.52, respectively. For the same molecule, the results for the pKi (on Orexin receptor type 2 [3]; in series [5]) were 8.85 and 5.07, respectively. For the same molecule, in the series with CHO [6], the Ratio Ki is 6140. This molecule came in with a clearance in series [12] of 17 mL/min/kg.
Turning to `COc1ccc(CNC(=O)c2cc(-c3cncc(C)c3)ncc2-c2cccc(F)c2)nc1OC`, the Ratio IC50 in the series with CHO [1] was determined as 122. Also, the values for the pIC50 (on Orexin receptor type 2 [2]; in series [4]) were 7.80 and 5.71, respectively. The pKi in [5] is 5.40. The Ratio Ki in the series on CHO [6] was determined as 4440. Also, the clearance in series [12] came out at 18 mL/min/kg.
`COc1ccc(CNC(=O)c2nc(-c3cncc(C)c3)ccc2-c2ccccc2)nc1OC`: the pKi on Orexin receptor type 2 [3] was 7.37; in series [5], 5.62. For the same molecule, the Ratio Ki with CHO [6] amounted to 56. The molecule further had a clearance in series [12] of 28 mL/min/kg.

The record behind these values is ChEMBL document CHEMBL3352684, “Discovery of MK-3697: a selective orexin 2 receptor antagonist (2-SORA) for the treatment of insomnia” (Bioorg Med Chem Lett, 2014).
